For this test, the target named is IRAK4 kinase (Homo sapiens (Human), UniProt Q9NWZ3). As to the kind of experiment: IRAK4 kinase activity inhibition assay. The format is biochemical. As to conditions: ADP-Glo kinase assay, 10 μM ATP, MBP substrate. As to the method:
IRAK4 kinase (purchased from Life Technologies, Cat. No.: PR5612U) was diluted to 2 folds of the final concentration (the final concentration is […]) with reaction buffer (40 mM Tris-HC1, pH 7.5; 20 mM MgCl2; 0.1 mg/mL BSA; 1 mM DTT), and added to a 384-well plate at 5 μL/well. The test drugs were 10-fold serial diluted from 10 μM to set six concentration points and added to the test wells of the 384-well plate at 2.5 μL/well. After incubation for 10 min at 25° C., 10 μM of ATP and 0.1 μg/μL of an enzyme reaction substrate, myelin basic protein MBP (purchased from Signal Chem, Cat. No.: M42-51N) were added at 2.5 μL/well, and reacted at 25° C. for 60 minutes. After the reaction was completed, the kinase activity assay was performed using the ADP-Glo™ kinase assay kit (purchased from Promega, Cat. No.: V9102) according to the manufacture's instruction, i.e., 10 μL of ADP-Glo reaction reagent was first added and reacted at 25° C. for 40 minutes, 10 μL of the reaction mixture was taken and mixed with 10 μL of ADP-Glo detection reagent, and reacted at 25° C. for 30 minutes. The kinase activity was then detected, and the IC50 values of the test drugs were calculated.
(In general: In ADP-Glo the light output rises with the ADP produced.)

pIC50: −log10 of the molar value.

Sequence of IRAK4 kinase (Q9NWZ3 whole entry): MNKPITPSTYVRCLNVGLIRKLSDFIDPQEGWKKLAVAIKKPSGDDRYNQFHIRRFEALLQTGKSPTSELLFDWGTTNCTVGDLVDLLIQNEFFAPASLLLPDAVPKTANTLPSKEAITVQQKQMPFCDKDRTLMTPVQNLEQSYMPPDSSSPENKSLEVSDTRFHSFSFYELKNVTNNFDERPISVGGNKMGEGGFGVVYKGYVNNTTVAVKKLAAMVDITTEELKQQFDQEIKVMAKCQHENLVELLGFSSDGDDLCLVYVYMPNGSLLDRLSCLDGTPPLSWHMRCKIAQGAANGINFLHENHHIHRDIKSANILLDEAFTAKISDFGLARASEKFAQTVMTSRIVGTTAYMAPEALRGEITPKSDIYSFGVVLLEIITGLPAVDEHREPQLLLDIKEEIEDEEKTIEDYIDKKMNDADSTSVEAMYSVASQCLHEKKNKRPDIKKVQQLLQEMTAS

One may read the pIC50 as the IC50 on a negative log10 scale, so that one unit is a factor of ten. In the case of `Cn1cc(-n2ccc3nc(Nc4ccc5c(c4)CNC5=O)nc(O[C@H]4CCOC4)c32)cn1` [Example 120], the pIC50 was not below 7.00.
`CN1Cc2cc(Nc3nc(O[C@H]4CCOC4)c4c(ccn4-c4cnn(C)c4)n3)ccc2C1=O` [Example 121]: the pIC50 is not below 7.00.
`Cn1cc(-n2ccc3nc(Nc4ccc5c(c4)C(=O)NC5)nc(O[C@H]4CCOC4)c32)cn1` [Example 122] showed a pIC50 of 6.00 to 7.00.
The compound `Cn1cc(-n2ccc3nc(Nc4ccc5[nH]ncc5c4)nc(O[C@H]4CCOC4)c32)cn1` [Example 123] had a pIC50 not below 7.00.
Turning to `Cn1cc(-n2ccc3nc(Nc4ccc5cn[nH]c5c4)nc(O[C@H]4CCOC4)c32)cn1` [Example 124], the negative-log IC50 (pIC50) is 6.00 to 7.00.
In the case of `Cn1cc(-n2ccc3nc(Nc4ccc5ncsc5c4)nc(O[C@H]4CCOC4)c32)cn1` [Example 125], the pIC50 is 6.00 to 7.00.
`CNC(=O)c1csc(Nc2nc(O[C@H]3CCOC3)c3c(ccn3-c3ccoc3)n2)c1` [Example 126] showed a pIC50 not below 7.00.
Compound `CCNC(=O)c1csc(Nc2nc(OC(C)C)c3c(ccn3-c3cnn(C)c3)n2)c1` [Example 127] showed a pIC50 not below 7.00.
With `CCNC(=O)c1csc(Nc2nc(OC3CCCC3)c3c(ccn3-c3cnn(C)c3)n2)c1` [Example 128], the pIC50 is 6.00 to 7.00.
`CCNC(=O)c1csc(Nc2nc(OC3CCCCC3)c3c(ccn3-c3cnn(C)c3)n2)c1` [Example 129] showed a pIC50 of 6.00 to 7.00.
As to `CCNC(=O)c1csc(Nc2nc(OCCOC)c3c(ccn3-c3cnn(C)c3)n2)c1` [Example 130], the negative-log IC50 (pIC50) is not below 7.00.
As for `CCNC(=O)c1csc(Nc2nc(O[C@@H]3CCOC3)c3c(ccn3-c3cnn(C)c3)n2)c1` [Example 131], the figure is not below 7.00; as for `Cn1cc(-n2ccc3nc(Nc4cc(C(N)=O)cs4)nc(O[C@H]4CCOC4)c32)cn1` [Example 132], not below 7.00; as for `CCCNC(=O)c1csc(Nc2nc(O[C@H]3CCOC3)c3c(ccn3-c3cnn(C)c3)n2)c1` [Example 135], 6.00 to 7.00.
As for `CC(C)NC(=O)c1csc(Nc2nc(O[C@H]3CCOC3)c3c(ccn3-c3cnn(C)c3)n2)c1` [Example 136], the figure is not below 7.00; as for `Cn1cc(-n2ccc3nc(Nc4cc(C(=O)NCCF)cs4)nc(O[C@H]4CCOC4)c32)cn1` [Example 137], not below 7.00.
`Cn1cc(-n2ccc3nc(Nc4cc(C(=O)NCC(F)(F)F)cs4)nc(O[C@H]4CCOC4)c32)cn1` [Example 138] had a pIC50 not below 7.00.
Compound `COCCNC(=O)c1csc(Nc2nc(O[C@H]3CCOC3)c3c(ccn3-c3cnn(C)c3)n2)c1` [Example 139] gave a negative-log IC50 (pIC50) not below 7.00.
As for `Cn1cc(-n2ccc3nc(Nc4cc(C(=O)NCC5CCOCC5)cs4)nc(O[C@H]4CCOC4)c32)cn1` [Example 140], the pIC50 is not below 7.00.
In turn, `CN1CCC(CNC(=O)c2csc(Nc3nc(O[C@H]4CCOC4)c4c(ccn4-c4cnn(C)c4)n3)c2)CC1` [Example 141] gave a pIC50 not below 7.00.
Take `Cn1cc(-n2ccc3nc(Nc4cc(C(=O)NCc5cccs5)cs4)nc(O[C@H]4CCOC4)c32)cn1` [Example 142]: the negative logarithm of the IC50 (pIC50) is 6.00 to 7.00.
`Cn1cc(-n2ccc3nc(Nc4cc(C(=O)NC5CC5)cs4)nc(O[C@H]4CCOC4)c32)cn1` [Example 143] gave a negative-log IC50 (pIC50) not below 7.00.
Turning to `Cn1cc(-n2ccc3nc(Nc4cc(C(=O)NC5CCCCC5)cs4)nc(O[C@H]4CCOC4)c32)cn1` [Example 144], the pIC50 was 6.00 to 7.00.
Regarding `CN1CCC(NC(=O)c2csc(Nc3nc(O[C@H]4CCOC4)c4c(ccn4-c4cnn(C)c4)n3)c2)CC1` [Example 145], the pIC50 is not below 7.00.
The compound `Cn1cc(-n2ccc3nc(Nc4cc(C(=O)N[C@@H]5CCOC5)cs4)nc(O[C@H]4CCOC4)c32)cn1` [Example 146] showed a pIC50 not below 7.00.
Consider `Cn1cc(-n2ccc3nc(Nc4cc(C(=O)N[C@H]5CCOC5)cs4)nc(O[C@H]4CCOC4)c32)cn1` [Example 147], for which the negative logarithm of the IC50 (pIC50) is not below 7.00.
For `Cn1cc(-n2ccc3nc(Nc4cc(C(=O)NC5CCOCC5)cs4)nc(O[C@H]4CCOC4)c32)cn1` [Example 148], the pIC50 is not below 7.00.

(Values after patent US10562902B2, “IRAK4 inhibitor and use thereof” (BEIJING HANMI PHARMACEUTICAL CO., LTD., priority 2015, dated 2020).)
